# Reference: patent publication US5283243A, “Piperidinoalkylbenzoxazine and piperidinoalkylbenzothiazine compounds, and medicaments containing them” (Kali-Chemie Pharma GmbH, priority 1990, dated 1994)
# Biological target: T1, histamine-(H1)-receptor (Cavia porcellus, UniProt P31389)
# T1 construct: Segments of the ileum 1.5 cm long from Dunkin Hartley guinea pigs; from tissue; host or cells: isolated ileum segments of Dunkin Hartley guinea pigs
# Assay: Anti-histamine-(H1) effect, inhibition of histamine-induced contraction of isolated guinea pig ileum in vitro
# Format: cell-based, Dunkin Hartley guinea pigs
# Details: histamine 5 × 10^-6 mole/l, test substance 10^-6 mole/l
# Experimental: 3. Investigation of Anti-Histamine-(H1) Effect Based on Histamine-(H1)-Receptor Antagonism In Vitro
# To investigate the histamine-(H1)-receptor antagonism of the test substances, the inhibiting effect of the substances on histamine-induced contractions of the smooth muscle was determined in vitro on the isolated organ. Isolated strips of organ from the ileum are suitable for this purpose. In an organ bath of physiological saline solution the smooth muscle strips react to the addition of histamine by contracting. […] The extent of regression of the contraction is an indication of the anti-histamine-(H1) activity of the compounds. The investigation was carried out analogously to the method originally described by Magnus (Pfluegers Arch. 102, 123 (1904)). Procedure for determining the smooth muscle contraction inhibiting effect on isolated guinea pig ileum induced by a 5×10^-6 molar histamine concentration.
# Segments of the ileum 1.5 cm long from Dunkin Hartley guinea pigs having a body weight of 300 500 g were used for the test. Each strip was placed in an organ bath of 10 ml of physiological saline solution according to Krebs-Henseleit and attached to a conventional apparatus for isotonic measurement of changes in length of the ileum strips (automated Celaster measuring apparatus), so that the tissue was under 1 g of tension. The bath was kept at a pH of 7.4 and gassed with a mixture of 5% CO2 and 95% 02. After an equilibration phase, an isotonic contraction of the tissue was induced by adding histamine in a final concentration of 5×10^-6 mole/liter and washing it out again after a contact time of 30 seconds. Only tissues samples from which three reproducible contractions were obtained at 10 minute intervals were used in the subsequent test. The test substances were then added in a final concentration of 10^-6 mole/liter, and after 30 seconds contact time histamine was again added up to a concentration of 5×10^-6 mole/liter. The resulting contractions were measured over 30 seconds. The tissue was then washed several times over a period of 10 minutes. Histamine was then added again to stimulate a contraction. The resulting contractions were again measured over 30 seconds. The difference between the amplitude of the contraction obtained by histamine addition alone and the amplitude of the contraction obtained in the presence of the test substance was determined and expressed in terms of % inhibition.
# The inhibiting effects on the contractions induced by histamine 30 seconds after administration of the test substance and on the contractions induced by the addition of histamine 10 minutes later are listed in the table.
# T1 sequence (P31389 whole entry): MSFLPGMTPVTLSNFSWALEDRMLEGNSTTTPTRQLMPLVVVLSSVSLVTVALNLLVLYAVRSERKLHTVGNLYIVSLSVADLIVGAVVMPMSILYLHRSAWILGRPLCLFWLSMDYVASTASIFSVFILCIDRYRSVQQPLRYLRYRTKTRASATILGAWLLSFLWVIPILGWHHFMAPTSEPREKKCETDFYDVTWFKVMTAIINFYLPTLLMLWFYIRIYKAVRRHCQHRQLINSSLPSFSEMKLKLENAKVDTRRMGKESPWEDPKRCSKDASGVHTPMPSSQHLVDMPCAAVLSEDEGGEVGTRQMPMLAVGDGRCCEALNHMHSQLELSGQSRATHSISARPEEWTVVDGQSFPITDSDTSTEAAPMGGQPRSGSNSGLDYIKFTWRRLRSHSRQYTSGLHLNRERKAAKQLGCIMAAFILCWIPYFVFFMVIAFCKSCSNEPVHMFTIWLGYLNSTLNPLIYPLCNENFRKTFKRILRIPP
compound,measurement,setting,value
O=C1Nc2ccccc2SC1CCCN1CCC(Nc2nc3ccccc3n2Cc2ccc(F)cc2)CC1 (centres unmarked) [Example 8],"in vitro (H1)-receptor antagonism, % inhibition of histamine-induced ileum contractions after 30 seconds",after 30 seconds,5%
same,"in vitro (H1)-receptor antagonism, % inhibition of histamine-induced ileum contractions after 10 minutes",after 10 minutes,44%
